Experiments:
HL-60 = HL-60 differentiation potency; type: cell-based; settings: Homo sapiens
in vitro = settings: human

Row | EC50 (HL-60) [nM] | IC50 (in vitro) [nM] | SMILES
1 | 47.1 | 900 | C[C@H]1[C@@H](Oc2ccc(CC(=O)O)cc2C(F)(F)F)O[C@@H]2O[C@@]3(C)CC[C@H]4[C@H](C)CC[C@@H]1[C@@]24OO3 [Compound 183, 2-(3-(trifluoromethyl)-4-(((3R,5aS,6R, 8aS,9R,10S,12R, 12aR)-3,6,9-trimethyldeca-hydro-12H-3,12-epoxy[1,2]dioxepino[4,3-i]isochromen-10-yl)oxy)phenyl) acetic acid]
2 | 65.8 | 1500 | CC(O[C@H]1O[C@@H]2O[C@@]3(C)CC[C@H]4[C@H](C)CC[C@@H]([C@H]1C)[C@@]24OO3)c1ccc(C(=O)O)cc1Cl (stereo partly drawn) [Compound 179, 3-chloro-4-(1-(((3R,5aS,6R,8aS, 9R,10S,12R, 12aR)-3,6,9-trimethyldeca-hydro-12H-3,12-epoxy[1,2]dioxepino[4,3-i]isochromen-10-yl)oxy)ethyl) benzoic acid]
3 | 175 | > 20000 | C[C@H]1[C@@H](OCc2ccc(C(=O)O)c(C(F)(F)F)c2)O[C@@H]2O[C@@]3(C)CC[C@H]4[C@H](C)CC[C@@H]1[C@@]24OO3 [Compound 155, 2-(trifluoromethyl)-4-((((3R,5aS,6R, 8aS,9R,10S,12R, 12aR)-3,6,9-trimethyldeca-hydro-12H-3,12-epoxy[1,2]dioxepino[4,3-i]isochromen-10-yl)oxy)methyl) benzoic acid]
4 | > 20000 | > 20000 | C[C@H]1[C@@H](OCC(=O)N2C[C@@H](O)C[C@H]2C(=O)O)O[C@@H]2O[C@@]3(C)CC[C@H]4[C@H](C)CC[C@@H]1[C@@]24OO3 [Compound 160, (2S,4S)-4-hydroxy-1-(2-(((3R,5aS,6R,8aS, 9R,10S,12R, 12aR)-3,6,9-trimethyldeca-hydro-12H-3,12-epoxy[1,2]dioxepino[4,3-i]isochromen-10-yl)oxy)acetyl) pyrrolidine-2-carboxylic acid]
5 | 1710 | 4050 | CCN(CC)Cc1ccc(C(C)O[C@@H]2O[C@@H]3O[C@@]4(C)CC[C@H]5[C@H](C)CC[C@@H]([C@H]2C)[C@@]35OO4)cc1O (stereo partly drawn) [Compound 47, 2-((diethylamino)methyl)-5-(1-(((3R,5aS,6R,8aS, 9R,10R,12R, 12aR)-3,6,9-trimethyldeca-hydro-12H-3,12-epoxy[1,2]dioxepino[4,3-i]isochromen-10-yl)oxy)ethyl) phenol]
6 | 241 | > 20000 | C[C@H]1[C@@H](O[C@H]2CC[C@@H](CC(=O)O)C2)O[C@@H]2O[C@@]3(C)CC[C@H]4[C@H](C)CC[C@@H]1[C@@]24OO3 [Compound 130, 2-((1R,3S)-3-(((3R,5aS,6R,8aS, 9R,10S,12R, 12aR)-3,6,9-trimethyldeca-hydro-12H-3,12-epoxy[1,2]dioxepino[4,3-i]isochromen-10-yl)oxy)cyclo-pentyl)acetic acid]
7 | > 20000 | > 20000 | C[C@H]1[C@H](OCc2ccc(C(=O)O)c(Cl)c2)O[C@@H]2O[C@@]3(C)CC[C@H]4[C@H](C)CC[C@@H]1[C@@]24OO3 [Compound 92, 2-chloro-4-((((3R,5aS,6R, 8aS,9R,10R,12R, 12aR)-3,6,9-trimethyldeca-hydro-12H-3,12-epoxy[1,2]dioxepino[4,3-i]isochromen-10-yl)oxy)methyl) benzoic acid]
8 | 54.6 | 192 | C[C@H]1[C@H](OCc2ccc(C#N)cc2)O[C@@H]2O[C@@]3(C)CC[C@H]4[C@H](C)CC[C@@H]1[C@@]24OO3 [Compound 7, 4-((((3R,5aS,6R, 8aS,9R,10R,12R, 12aR)-3,6,9-trimethyldeca-hydro-12H-3,12-epoxy[1,2]dioxepino[4,3-i]isochromen-10-yl)oxy)methyl) benzonitrile]
9 | > 20000 | > 20000 | C[C@H]1[C@@H](OCc2cc(C(=O)O)cc(C(=O)O)c2)O[C@@H]2O[C@@]3(C)CC[C@H]4[C@H](C)CC[C@@H]1[C@@]24OO3 [Compound 141, 5-((((3R,5aS,6R,8aS, 9R,10S,12R, 12aR)-3,6,9-trimethyldeca-hydro-12H-3,12-epoxy[1,2]dioxepino[4,3-i]isochromen-10-yl)oxy)methyl) isophthalic acid]
10 | 159 | 16500 | C[C@H]1[C@@H](OC(C)(C)[C@H]2CC[C@@H](C(=O)O)CC2)O[C@@H]2O[C@@]3(C)CC[C@H]4[C@H](C)CC[C@@H]1[C@@]24OO3 [Compound 131, (1R,4s)-4-(2-(((3R,5aS,6R,8aS, 9R,10S,12R, 12aR)-3,6,9-trimethyldeca-hydro-12H-3,12-epoxy[1,2]dioxepino[4,3-i]isochromen-10-yl)oxy)propan-2-yl)cyclohexane-1-carboxylic acid]
11 | > 20000 | > 20000 | COC(=O)[C@@H]1CCN(CC[C@H]2O[C@@H]3O[C@@]4(C)CC[C@H]5[C@H](C)CC[C@@H]([C@H]2C)[C@@]35OO4)C1 [Compound 70, methyl (R)-1-(2-((3R,5aS,6R,8aS, 9R,10R,12R, 12aR)-3,6,9-trimethyldeca-hydro-12H-3,12-epoxy[1,2]dioxepino[4,3-i]isochromen-10-yl)ethyl) pyrrolidine-3-carboxylate]
12 | > 20000 | > 20000 | C[C@H]1[C@H](OCC(=O)N2C[C@H](F)C[C@H]2C(=O)O)O[C@@H]2O[C@@]3(C)CC[C@H]4[C@H](C)CC[C@@H]1[C@@]24OO3 [Compound 159, (2S,4R)-4-fluoro-1-(2-(((3R,5aS,6R,8aS, 9R,10R,12R, 12aR)-3,6,9-trimethyldeca-hydro-12H-3,12-epoxy[1,2]dioxepino[4,3-i]isochromen-10-yl)oxy)acetyl) pyrrolidine-2-carboxylic acid]
13 | 63.8 | > 10000 | C[C@H]1[C@@H](OCCCc2ccc(C(=O)O)cc2)O[C@@H]2O[C@@]3(C)CC[C@H]4[C@H](C)CC[C@@H]1[C@@]24OO3 [Compound 10, 4-(3-(((3R,5aS,6R, 8aS,9R,10S,12R, 12aR)-3,6,9-trimethyldeca-hydro-12H-3,12-epoxy[1,2]dioxepino[4,3-i]isochromen-10-yl)oxy)propyl) benzoic acid]
14 | 680 | > 20000 | C[C@H]1[C@H](OC[C@H]2CC[C@H](C(=O)O)CC2)O[C@@H]2O[C@@]3(C)CC[C@H]4[C@H](C)CC[C@@H]1[C@@]24OO3 [Compound 40, (1R,4r)-4-((((3R,5aS,6R,8aS, 9R,10R,12R, 12aR)-3,6,9-trimethyldeca-hydro-12H-3,12-epoxy[1,2]dioxepino[4,3-i]isochromen-10-yl)oxy)methyl) cyclohexane-1-carboxylic acid]
15 | 11.1 | 10.6 | C[C@H]1[C@@H](OCc2ccc3c(c2)OC(F)(F)O3)O[C@@H]2O[C@@]3(C)CC[C@H]4[C@H](C)CC[C@@H]1[C@@]24OO3 [Compound 1, (3R,5aS,6R,8aS, 9R,10S,12R, 12aR)-10-((2,2-difluorobenzo[d] [1,3]dioxol-5-yl)methoxy)-3,6,9-trimethyldeca-hydro-12H-3,12-epoxy[1,2] dioxepino[4,3-i]isochromene]
16 | 660 | 743 | C[C@H]1[C@H](NCCS(C)(=O)=O)O[C@@H]2O[C@@]3(C)CC[C@H]4[C@H](C)CC[C@@H]1[C@@]24OO3 [Compound 99, (3R,5aS,6R,8aS, 9R,10R,12R, 12aR)-3,6,9-trimethyl-N-(2-(methylsulfonyl)ethyl)decahydro-12H-3,12-epoxy [1,2]dioxepino [4,3-i]isochromen-10-amine]
17 | 526 | > 20000 | C[C@H]1[C@@H](OCCc2ccc(C(=O)O)cc2)O[C@@H]2O[C@@]3(C)CC[C@H]4[C@H](C)CC[C@@H]1[C@@]24OO3 [Compound 36, 4-(2-(((3R,5aS,6R,8aS, 9R,10S,12R, 12aR)-3,6,9-trimethyldeca-hydro-12H-3,12-epoxy[1,2]dioxepino[4,3-i]isochromen-10-yl)oxy)ethyl) benzoic acid]
18 | 58.1 | 1500 | C[C@H]1[C@@H](Oc2ccc(C3CC(C(=O)O)C3)cc2)O[C@@H]2O[C@@]3(C)CC[C@H]4[C@H](C)CC[C@@H]1[C@@]24OO3 (stereo partly drawn) [Compound 175, 3-(4-(((3R,5aS,6R,8aS, 9R,10S,12R, 12aR)-3,6,9-trimethyldeca-hydro-12H-3,12-epoxy[1,2]dioxepino[4,3-i]isochromen-10-yl)oxy)phenyl) cyclobutane-1-carboxylic acid]
19 | 865 | > 20000 | Cc1cc(C(=O)O)ccc1CO[C@H]1O[C@@H]2O[C@@]3(C)CC[C@H]4[C@H](C)CC[C@@H]([C@H]1C)[C@@]24OO3 [Compound 74, 3-methyl-4-((((3R,5aS,6R,8aS, 9R,10S,12R, 12aR)-3,6,9-trimethyldeca-hydro-12H-3,12-epoxy[1,2]dioxepino[4,3-i]isochromen-10-yl)oxy)methyl) benzoic acid]
20 | 257 | 315 | C[C@H]1[C@H](NCCc2ccccc2)O[C@@H]2O[C@@]3(C)CC[C@H]4[C@H](C)CC[C@@H]1[C@@]24OO3 [Compound 94, (3R,5aS,6R,8aS, 9R,10R,12R, 12aR)-3,6,9-trimethyl-N-phenethyldeca-hydro-12H-3,12-epoxy[1,2] dioxepino[4,3-i] isochromen-10-amine]
21 | 11200 | 11800 | C[C@H]1[C@H](N2CCC(C(=O)NC3COC3)CC2)O[C@@H]2O[C@@]3(C)CC[C@H]4[C@H](C)CC[C@@H]1[C@@]24OO3 [Compound 60, N-(oxetan-3-yl)-1-((3R,5aS, 6R,8aS,9R,10R, 12R,12aR)-3,6,9-trimethyldeca-hydro-12H-3,12-epoxy[1,2]dioxepino[4,3-i]isochromen-10-yl)piperidine-4-carboxamide]
22 | > 20000 | > 20000 | C[C@H]1[C@@H](OCCS(C)(=O)=O)O[C@@H]2O[C@@]3(C)CC[C@H]4[C@H](C)CC[C@@H]1[C@@]24OO3 [Compound 90, (3R,5aS,6R,8aS, 9R,10S,12R, 12aR)-3,6,9-trimethyl-10-(2-(methylsulfonyl)ethoxy)deca-hydro-12H-3,12-epoxy[1,2] dioxepino[4,3-i] isochromene]
23 | 70.8 | 9000 | C[C@H]1[C@@H](Oc2ccc3c(c2)OC(C(=O)O)C3)O[C@@H]2O[C@@]3(C)CC[C@H]4[C@H](C)CC[C@@H]1[C@@]24OO3 (stereo partly drawn) [Compound 154, 6-(((3R,5aS,6R,8aS, 9R,10S,12R, 12aR)-3,6,9-trimethyldeca-hydro-12H-3,12-epoxy[1,2]dioxepino[4,3-i]isochromen-10-yl)oxy)-2,3-dihydrobenzo-furan-2-carboxylic acid]

Source: US20260242391A1 (priority 2023, published 2026)
